Source: patent US20230015647A1, “INHIBITORS OF HISTONE DEMETHYLASES (PFI-63 AND PFI-90) FOR THE TREATMENT OF CANCER AND FOR THE INHIBITION OF HISTONE DEMETHYLASE IN CELLS” (The United States of America,as represented by the …, priority 2019, published 2023)
Entries after “also recorded” stand apart in the source; their conditions may differ. Read-outs that look alike come from different tables or passages of the source.

Key:
RH4 cells [1] = assay: Cell confluence assay (cytotoxicity) in RH4 cells; format: cell-based; details: Homo sapiens, 72 hour time point
Protocol: (§1) A cell confluence assay was performed to further assess the cytotoxicity of PFI-63 in RH4 and RH30 rhabdomyosarcoma cells. Confluence data was collected via photographic images of cells treated with PFI-63 at the following time points: 24 hours, 48 hours, 72 hours, 96 hours and 120 hours. Exemplary dose response curves at 72 hours are presented as FIGS. 10 and 11 in RH4 and RH30 cells, respectively.
as §1, with “to” for “to further”, “PFI-90” for “PFI-63”, “32” for “10”, “33” for “11”

[2] = test system: rhabdomyosarcoma cells (i.e. RH4 and RH30 cells); assay: Cell confluence / cell number, rhabdomyosarcoma cells taken together; format: cell-based
Protocol: (§2) Among the 64 compounds identified above, 33 compounds of unknown mechanism of action were identified.
as §1
as §1, with “to” for “to further”, “PFI-90” for “PFI-63”, “32” for “10”, “33” for “11”

[3] = test system: OSA-CL osteosarcoma cells; assay: Cell confluence assay in OSA-CL osteosarcoma cells; format: cell-based
Protocol: as §1, with “OSA-CL osteosarcoma” for “RH4 and RH30 rhabdomyosarcoma”, “59” for “10”, “60 for PFI-63” for “11 in RH4”, “PFI-90” for “RH30 cells,”

KDM3B (JMJD1B) = molecular target: T1, KDM3B (JMJD1B) (Homo sapiens, UniProt Q7LBC6); assay: Eurofins histone lysine demethylase panel, enzymatic inhibition, substrate H3K9me1/2(3); format: biochemical; details: KDM3B (JMJD1B) enzymatic activity
T1 construct: The enzymatic activity of each of the full length protein was analyzed using known substrates; purchased Eurofins
T1 sequence (Q7LBC6 whole entry): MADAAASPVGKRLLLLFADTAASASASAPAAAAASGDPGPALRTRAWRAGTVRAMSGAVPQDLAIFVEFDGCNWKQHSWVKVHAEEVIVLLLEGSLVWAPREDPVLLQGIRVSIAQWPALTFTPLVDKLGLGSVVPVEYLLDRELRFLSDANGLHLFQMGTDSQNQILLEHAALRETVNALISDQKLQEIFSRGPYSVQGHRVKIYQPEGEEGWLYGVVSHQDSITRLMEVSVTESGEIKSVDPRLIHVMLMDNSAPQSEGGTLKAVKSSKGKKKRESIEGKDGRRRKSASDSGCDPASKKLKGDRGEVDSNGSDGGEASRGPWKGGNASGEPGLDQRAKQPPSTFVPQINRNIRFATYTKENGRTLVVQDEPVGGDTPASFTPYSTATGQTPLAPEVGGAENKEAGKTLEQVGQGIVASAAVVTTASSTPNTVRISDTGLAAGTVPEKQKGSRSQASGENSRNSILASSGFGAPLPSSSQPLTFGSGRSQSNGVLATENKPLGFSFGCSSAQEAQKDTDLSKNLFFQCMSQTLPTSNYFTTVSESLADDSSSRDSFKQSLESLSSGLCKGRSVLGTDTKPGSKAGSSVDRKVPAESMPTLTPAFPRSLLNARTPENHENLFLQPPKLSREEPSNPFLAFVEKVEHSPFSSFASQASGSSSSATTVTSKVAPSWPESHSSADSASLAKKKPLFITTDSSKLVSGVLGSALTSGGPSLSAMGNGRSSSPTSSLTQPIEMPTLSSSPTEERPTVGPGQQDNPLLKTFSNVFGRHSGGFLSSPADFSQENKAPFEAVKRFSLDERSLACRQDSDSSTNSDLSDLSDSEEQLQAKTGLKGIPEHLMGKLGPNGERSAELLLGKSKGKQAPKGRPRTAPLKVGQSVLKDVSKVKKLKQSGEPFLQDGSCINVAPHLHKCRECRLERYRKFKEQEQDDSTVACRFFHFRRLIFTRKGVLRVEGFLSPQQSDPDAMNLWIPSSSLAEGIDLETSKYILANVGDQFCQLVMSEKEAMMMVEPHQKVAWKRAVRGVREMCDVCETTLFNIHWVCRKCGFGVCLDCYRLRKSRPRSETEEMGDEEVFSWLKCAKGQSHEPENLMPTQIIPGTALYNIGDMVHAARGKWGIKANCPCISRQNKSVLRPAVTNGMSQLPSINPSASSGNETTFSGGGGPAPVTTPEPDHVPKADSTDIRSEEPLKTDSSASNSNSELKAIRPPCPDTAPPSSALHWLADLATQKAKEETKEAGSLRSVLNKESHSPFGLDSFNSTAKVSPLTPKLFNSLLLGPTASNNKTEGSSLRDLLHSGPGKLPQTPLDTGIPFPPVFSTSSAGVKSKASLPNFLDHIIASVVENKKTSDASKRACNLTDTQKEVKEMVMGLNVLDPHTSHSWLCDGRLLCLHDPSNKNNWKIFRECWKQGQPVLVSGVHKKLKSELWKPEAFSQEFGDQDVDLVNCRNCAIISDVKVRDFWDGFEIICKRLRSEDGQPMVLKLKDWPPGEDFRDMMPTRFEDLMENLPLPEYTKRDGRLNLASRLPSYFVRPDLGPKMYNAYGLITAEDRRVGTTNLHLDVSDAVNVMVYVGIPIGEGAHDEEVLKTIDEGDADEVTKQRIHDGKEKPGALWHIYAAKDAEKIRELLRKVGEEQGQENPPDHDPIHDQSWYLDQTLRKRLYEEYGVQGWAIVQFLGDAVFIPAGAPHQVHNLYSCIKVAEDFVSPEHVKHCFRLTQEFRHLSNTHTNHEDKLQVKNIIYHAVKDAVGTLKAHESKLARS
Protocol: PFI-63 was sent to Eurofins (www.eurofins.com) for direct enzymatic inhibition activity analysis. The enzymatic activity of each of the full length protein was analyzed using known substrates such as methylated lysines. The proteins were treated with various concentrations of PFI-63. As described above, PFI-90 inhibitory activity was determined by Eurofins using enzymatic inhibition activity analysis of a panel of histone demethylases.

RH4 cells [4] = assay: Western blot (MYOG, cleaved PARP, PAX3-FOXO1); format: cell-based, human
Protocol: The GSEA results were supported by analysis via Western blot. […] This example confirms that PFI-63 disrupts PAX3-FOXO1 super enhancer circuitry. PFI-63 is also associated with upregulation of targets associated with myogenic differentiation and apoptosis.
In RH4 cells treated with PFI-90 at 3 μM, an increase in cleaved PARP (a marker for apoptosis) is observed at 24 hours (FIG. 48). This coincides with a decrease in PAX3-FOXO1 which is also observed at 24 hours (FIG. 49).

histone H3 methylation = assay: Western blot of histone H3 methylation in treated cells; format: cell-based
Excerpt: A diagram illustrating this activity is provided as FIG. 26.
Analysis via Western blot confirms that PFI-90 inhibits lysine demethylase activity.

RH30.19luc cells = assay: CRISPR/Cas9 genome-scale loss of function time course screen (GeCKOv2, TKOv3); format: cell-based; details: compared to DMSO
Protocol: To identify specific proteins targeted by PFI-63, a genome-scale loss of function time course screen was performed in RH30.19luc cells using two CRISPR/Cas9 libraries (GeCKOv2 and TKOv3) with and without treatment with PFI-63.

rhabdomyosarcoma cells = assay: Morphological imaging of treated cells; format: cell-based
Excerpt: as §2

[5] = test system: NCI-60 cancer cell line panel; assay: NCI-60 cancer cell line panel, percentage growth; format: cell-based, human
Protocol: This example describes the testing of PFI-90 against the NCI-60 panel. The NCI-60 cancer cell line panel is a collection of 60 human cancer cell lines maintained by the National Cancer Institute (see Shoemaker et al., Nat. Rev. Cancer, 6: 813-823 (2006)). Briefly, the percentage growth of the cancer cells lines was measured in the presence of PFI-90 at various concentrations.

[6] = test system: truncated KDM3B catalytic domain; assay: WaterLOGSY NMR binding assay; details: 300 μM; in the presence and in the absence of 2-OG
Excerpt: (§3) A WaterLOGSY assay and a Carr-Purcell Meiboom-Gill (CPMG) based assay were used to investigate protein-ligand binding affinity between PFI-90 and a truncated KDM3B catalytic domain.
In traditional proton NMR experiments, a series of peaks are generated that represent the structure of a solitary small molecule, whereas the WaterLOGSY experiment examines the behavior of a small molecule's peaks in the presence of a potential target. This is achieved by observing differences in interaction between a small molecule interacting with water co-occupying a binding cleft on a target as compared to water dispersed freely in solution. The experiment then depicts the ratio of bound to unbound small molecule by phasing proton NMR spectra on the X-axis in opposing directions depending on the magnitude of that ratio (i.e., increasing ratios above 1 will phase positively, decreasing ratios below 1 will phase negatively).

[7] = test system: truncated KDM3B catalytic domain; assay: CPMG relaxation editing NMR binding assay
Excerpt: as §3
CPMG (Carr-Purcell-Meiboom-Gill) Relaxation Editing Proton NMR is another drug-discovery NMR experiment that may be used in conjunction with WaterLOGSY to orthogonally validate the presence of a reversible binding interaction of mild to high affinity from a small molecule to a label-free target. In contrast to WaterLOGSY, all peaks are phased above the X-axis. Instead, this experiment filters out the proportion of peak height that is contributed from the quantity of small molecule bound to a target of high molecular weight (e.g., a protein). Once the attenuation of peak height is equivalent to a 20% reduction, the compound is said to bind, with an increasing ratio of bound to unbound small molecules manifesting in increasing signal attenuation.

[8] = test system: truncated KDM3B catalytic domain; assay: 1D 1H NMR chemical shift perturbation; format: binding; details: 300 uM PFI-90, 12 uM protein, with or without 100 uM 2-OG
Excerpt: For reference, FIG. 63 depicts NMR peaks for PFI-90. While the peaks are complex, all relevant peaks are clearly resolved. FIG. 64 depicts NMR peaks obtained for […] (also called 2-oxoglutaric acid or “2-OG”), a substrate of histone demethylases. 2-OG peaks are easily resolved. FIG. 65 depicts results from a 1D 1H analysis of PFI-90.

[9] = 72 hour time point, read-out: IC50
[10] = approximate, read-out: IC50 (toxic to osteosarcoma cells)

Compound: Cc1cc(C)cc(C(=O)NNC(=O)c2ccccn2)c1 [PFI-63]
- IC50 (RH4 cells [1]): 3.66 µM
- IC50 ([2]; FIGS. 8-9 (cell number by confluency, RH4, RH30, RH30.19luc), read-out: IC50): 2 to 6 µM
- IC50 ([2]; RH4 and RH30 cells, approximate, read-out: IC50 (toxic to rhabdomyosarcoma cells)): 3 to 5 µM
- IC50 [3, 9]: 7.57 µM
- IC50 [3, 10]: ~7.5 µM
- IC50 (KDM3B (JMJD1B)): 2 to 3 µM
- MYOG (Western blot) (RH4 cells [4]): increase
- cleaved PARP (Western blot) (RH4 cells [4]): apoptosis; also recorded: increases
- H3K4me3 (Western blot) (histone H3 methylation; treated cells): global increase
- H3K9me3 (Western blot) (histone H3 methylation; treated cells): global increase
- H3K27me3 (Western blot) (histone H3 methylation; treated cells): global increase
- synthetic lethality of targets of histone lysine demethylases (RH30.19luc cells): synthetically lethal
- cell morphology (rhabdomyosarcoma cells): elongation of cells

Compound: O=C(NNc1ccccn1)c1ccccn1 [PFI-90]
- IC50 (RH4 cells [1]): 0.812 µM
- cytotoxicity compared with PFI-63 ([2]; rhabdomyosarcoma cells (RH4, RH30)): more cytotoxic to rhabdomyosarcoma cells than PFI-63
- IC50 [3, 9]: 1.9 µM
- IC50 [3, 10]: ~2 µM
- PAX3-FOXO1 (Western blot) (RH4 cells [4]; 3 μM, 24 hours): decreases
- cleaved PARP (Western blot) (RH4 cells [4]; 3 μM, 24 hours): increases
- methylation of histone H3 (Western blot) (histone H3 methylation; as the concentration increases): also increases
- cell growth ([5]; CNS cancer cell lines): inhibits cell growth
- cell growth ([5]; breast cancer cell lines): inhibits cell growth
- cell growth ([5]; colon cancer cell lines): inhibits cell growth
- cell growth ([5]; leukemia cell lines): slows and/or stops the growth of the cells; also recorded: inhibits cell growth
- cell growth ([5]; melanoma cell lines): inhibits cell growth
- cell growth ([5]; non-small cell lung cancer cell lines): inhibits cell growth
- cell growth ([5]; ovarian cancer cell lines): inhibits cell growth
- cell growth ([5]; prostate cancer cell lines): inhibits cell growth
- cell growth ([5]; renal cancer cell lines): inhibits growth and leads to cell death; also recorded: inhibits cell growth and induces cell death
- binding (WaterLOGSY) [6]: found to bind; also recorded: binds
- peak height attenuation (CPMG) ([7]; 1 of 9 peaks): 70%
- peak height attenuation (CPMG) ([7]; 3 of 9 peaks): 50%
- peak height attenuation (CPMG) ([7]; 5 out of 9 PFI-90 peaks): Complete/near complete
- binding (CPMG) ([7]; in the presence and absence of 2-OG): Strong binding
- chemical shift perturbation upon addition of truncated KDM3B catalytic domain [8]: not influences by 2-OG presence; also recorded: not influenced by the presence of 2-OG
